# Laboratory results: US20220211687A1, “USE OF ARIMOCLOMOL IN THE TREATMENT OF NIEMANN PICK DISEASE” (Orphazyme A/S, priority 2020, published 2022)
# How the values were obtained:
# [1] = test system: Niemann-Pick disease type C (NPC); assay: 5-domain NPCCSS score, 12-month double-blind placebo-controlled phase 2/3 trial; type: in vivo, human; details: for Responders on 5-domain NPCCSS score at 12 months, %: responder = stable or improved
# Method: Patients enrolled in the trial were stratified by use of miglustat at baseline. Patients in both strata were randomized 2:1 to receive arimoclomol or placebo.
# (§1) Routine clinical care was maintained throughout the trial (including administration of miglustat). Each participant was randomized to receive arimoclomol or placebo three times daily. Arimoclomol was administered orally or by feeding tube at 93-372 mg/day based on the patient's body weight up to the estimated equivalence of 372 mg/day for adults (body weight >55 kg) or of 124 mg three times a day.
# (§2) During the 12-month treatment phase, efficacy assessments for the primary endpoint, the 5-domain NPCCSS score, and for the non-disease specific Clinical Global Impression—Improvement scale (CGI-I) scores were performed at baseline and after 3, 6, 9, and 12 months of treatment; all other efficacy and biomarker assessments were performed at baseline and after 6 and 12 months of treatment.
# Primary endpoint: The primary endpoint was change from baseline in NPC severity at 12 months as assessed by the 5-domain NPCCSS score, an abbreviated assessment tool originating from the 17 domain NPCCSS score developed by Yanjanin et al., as described herein. The fully validated 5-domain NPCCSS score comprises the domains determined to be most clinically relevant to patients, caregivers, and clinicians: ambulation, cognition, fine motor skills, speech, and swallowing. The total aggregated 5-domain NPCCSS score ranges from 0 to 25, with a higher score indicating more severe clinical impairment.
# Subgroup analyses of primary endpoint: NPC is a heterogeneous disease, and patients aged 2 to 18 years present with a large spectrum of disease presentations. The group of children <4 years old includes patients with mild manifestations and patients with aggressive, early fatal disease. As this group is particularly heterogeneous, a subgroup of patients >4 years of age was predefined with the population of study participants.
# In the EU, miglustat is indicated for the treatment of progressive neurological manifestations in patients with NPC. However, not all patients are candidates for miglustat treatment, and it is recommended that the benefit of treatment should be evaluated on a regular basis (e.g., every six months). An analysis of the subpopulation of patients receiving miglustat was prespecified to elucidate the effect of arimoclomol in patients on background miglustat treatment. Overall, the subgroups of patients ≥4 years of age, and patients on miglustat treatment, were expected to be more homogeneous with respect to baseline demographics and disease characteristics and therefore more suitable for comparison.
# In the first post hoc analysis, subjects with double functional null mutations in NPC1 (NPC1 genotype of Functional Null/Functional Null) were excluded.
# [2] = test system: Niemann-Pick disease type C (NPC); assay: 17-domain (full) NPCCSS score excluding hearing domains, phase 2/3 trial; type: in vivo, human; details: for Full NPCCSS score (excluding hearing domains), LS mean change from baseline, Arimoclomol vs placebo: Difference: p=0.5726
# Excerpt: As would be appreciated by the skilled artisan, progression of NPC in a subject can be tracked by a clinician using the NPC composite clinical severity scale (hereafter “NPCCSS”; see Yanjanin NM et al. Am J Med Genet B Neuropsychiatr Genet, 2010; 153B (1): 132-140, incorporated herein by reference in its entirety). A full “17-domain NPCCSS score” incorporates clinical signs and symptoms in nine major (ambulation, cognition, eye movement, fine motor, hearing, memory, seizures, speech, swallowing) and eight minor (auditory brainstem response, behavior, gelastic cataplexy, hyperreflexia, incontinence, narcolepsy, psychiatric, respiratory problems) domains to determine a score which describes the severity of the subject's NPC progression (a higher score, the more progressed/severe the disease is). An abridged “5-domain NPCCSS score” is also used by clinicians, and incorporates clinical signs and symptoms from the major domains of ambulation, cognition, fine motor, speech and swallowing (see Cortina-Borj a M et al. OrphanetJRare Dis, 2018; 13 (1): 143; 3, incorporated herein by reference in its entirety).
# as §1
# [3] = test system: Niemann-Pick disease type C (NPC); assay: Clinical Global Impression-Improvement scale (CGI-I) responder analysis, phase 2/3 trial; type: in vivo, human
# Method: as §2
# CGI-I: the CGI-I was originally developed as a research rating tool to assess psychiatric diseases (see Busner J, Targum SD. The clinical global impressions scale: applying a research tool in clinical practice. Psychiatry (Edgmont). 2007;4:28-37, incorporated herein by reference in its entirety). It provides the clinician's impression of improvement (or worsening) of a person's condition at the current visit compared with baseline on a 7-point scale ranging from 1 (very much improved) to 7 (very much worse). In the present trial, CGI-I was performed after clinical examination and patient interviews; the same investigator was instructed to perform CGI-I assessments throughout the trial for a given patient.
# [4] = test system: Niemann-Pick disease type C (NPC); assay: Nine-hole peg test (9-HPT), phase 2/3 trial; type: in vivo, human; details: for 9-HPT time, change from baseline to 12 months, LS mean: arimoclomol group
# Excerpt: 9-HPT: The 9-HPT is a direct and simple measurement of fine motor coordination, hand/eye coordination, and the ability to follow a simple direction, measured in seconds for each hand. The test is not applicable for children under 4 years of age. See Poole J L, Burtner PA, Torres TA, et al. Measuring dexterity in children using the Nine-hole Peg Test. J Hand Ther. 2005; 18:348-51.
# [5] = Safety evaluation (TEAEs), 12-month double-blind phase 2/3 trial; type: in vivo, human
# Method: as §1
# [6] = test system: Niemann-Pick disease type C (NPC)
# [7] = evidenced by presence in cerebrospinal fluid of treated ALS patients; cited from earlier work
smiles,measurement,setting,value
"[O-][n+]1cccc(/C(Cl)=N/OC[C@H](O)CN2CCCCC2)c1 [Arimoclomol, N-[(2R)-2-hydroxy-3-piperidin-1-ylpropoxy]-1-oxidopyridin-1-ium-3-carboximidoyl chloride]","Change in 5-domain NPCCSS score from baseline at 12 months, mean change","[1]; individuals aged ≥4 years, arimoclomol group n=30 (24 at 12 months)",0.44
same,"Change in 5-domain NPCCSS score from baseline at 12 months, Arimoclomol vs placebo: Difference","[1]; individuals aged ≥4 years, p=0.0190",−1.75
same,Relative reduction in annual disease progression,"[1]; individuals aged ≥4 years, vs placebo",80%
same,"Change in 5-domain NPCCSS score from baseline at 12 months, mean change","[1]; individuals not receiving miglustat, arimoclomol group n=8 (3 at 12 months)",4.2
same,"Change in 5-domain NPCCSS score from baseline at 12 months, Arimoclomol vs placebo: Difference","[1]; individuals not receiving miglustat, p=0.2835",2.21
same,"Change in 5-domain NPCCSS score from baseline at 12 months, mean change","[1]; individuals receiving miglustat, arimoclomol group n=26 (22 at 12 months)",−0.01
same,"Change in 5-domain NPCCSS score from baseline at 12 months, Arimoclomol vs placebo: Difference","[1]; individuals receiving miglustat, p=0.0074",−2.01
same,Relative reduction in annual disease progression,"[1]; individuals receiving miglustat, vs placebo",101%
same,Relative reduction in annual disease progression,"[1]; overall population, 5-domain NPCCSS, vs placebo",63%
same,"Change in 5-domain NPCCSS score from baseline at 12 months, mean change","[1]; overall population, arimoclomol group n=34 (27 at 12 months), 93-372 mg/day by body weight, three times daily",0.80
same,"Change in 5-domain NPCCSS score from baseline at 12 months, Arimoclomol vs placebo: Difference","[1]; overall population, p=0.0537",−1.34
same,"Responders on 5-domain NPCCSS score at 12 months, Arimoclomol vs placebo: Difference",[1]; p=0.5456,12.5%
same,"Proportion worsening on 5-domain NPCCSS score at 12 months, Arimoclomol vs placebo: Difference",[1]; p=1.0000,0.37%
same,Progression of NPC in prespecified subgroups (MMRM on 5-domain NPCCSS),"[1]; patients >4 years old (n=44) and patients concomitantly receiving miglustat (n=39), p<0.05",slowed progression of NPC
same,Relative reduction in annual disease progression,"[1]; post hoc, baseline ASIS within 0.5 and 2",93%
same,"Change in 5-domain NPCCSS score, Arimoclomol vs placebo: Difference","[1]; post hoc, baseline ASIS within 0.5 and 2 (n=21), p=0.0536",−2.39
same,"Change in 5-domain NPCCSS score from baseline at 12 months, mean change","[1]; post hoc, baseline ASIS within 0.5 and 2, arimoclomol n=13",0.19
same,Relative reduction in annual disease progression,"[1]; post hoc, excluding individuals with double functional null mutations",77%
same,"Change in 5-domain NPCCSS score from baseline at 12 months, mean change","[1]; post hoc, excluding individuals with double functional null mutations, arimoclomol n=31",0.47
same,"Change in 5-domain NPCCSS score, Arimoclomol vs placebo: Difference","[1]; post hoc, excluding individuals with double functional null mutations, p=0.0242",−1.56
same,"Responders on 5-domain NPCCSS score at 12 months, %",[1]; arimoclomol group n=34,(50.0) %
same,"Responders on 5-domain NPCCSS score at 12 months, %","[1]; arimoclomol group n=34, listed as arimoclomol",50.0%
same,Time to worsening on 5-domain NPCCSS score,"[1]; time until worsened by 2 points vs baseline, arimoclomol group",3.68 months
same,"Proportion worsening on 5-domain NPCCSS score at 12 months, %","[1]; worsening by 2 points vs baseline, arimoclomol group n=34",(44.1) %
same,"Full NPCCSS score (excluding hearing domains), LS mean change from baseline","[2]; 12 months, arimoclomol group",1.24
same,"Full NPCCSS score (excluding hearing domains), LS mean change from baseline, Arimoclomol vs placebo: Difference",[2]; 12 months,−1.56
same,"Full NPCCSS score (excluding hearing domains), LS mean change from baseline, Arimoclomol vs placebo: Difference","[2]; 12 months, listed as arimoclomol",numerically in favor of arimoclomol
same,"Full NPCCSS score (excluding hearing domains) at 12 months, Mean",[2]; arimoclomol group n=25,1.2
same,"Full NPCCSS score (excluding hearing domains) at 12 months, Median",[2]; arimoclomol group n=25,1.0
same,"Responders on CGI-I at 12 months, Arimoclomol vs placebo: Difference",[3]; p=1.0000,2.6%
same,"Responders on CGI-I at 12 months, %","[3]; responder = stable or improved, arimoclomol group",(58.8) %
same,"9-HPT time, change from baseline to 12 months, LS mean",[4]; Dominant hand,-3.29 s
same,"9-HPT time, change from baseline to 12 months, Arimoclomol vs placebo: Difference","[4]; Dominant hand, p=0.7283",3.20 s
same,"9-HPT time, change from baseline to 12 months, LS mean",[4]; Non-dominant hand,11.68 s
same,"9-HPT time, change from baseline to 12 months, Arimoclomol vs placebo: Difference","[4]; Non-dominant hand, p=0.7708",-5.91 s
same,Tolerability,[5]; 12-month placebo-controlled trial,well tolerated
same,Number of patients with increase in serum creatinine level over 1.5 times baseline,[5]; arimoclomol group,Six
same,Number of patients with serum creatinine level over twice baseline,[5]; arimoclomol group,two
same,Patients with serious TEAEs,[5]; arimoclomol group 5/34,14.7%
same,Patients with vomiting (most common TEAE),[5]; arimoclomol group 8/34,23.5%
same,"Upper respiratory tract infection and decreased weight, frequency versus placebo",[5]; double-blind phase,occurred more frequently
same,Patients with TEAEs (adverse event incidence),"[5]; double-blind phase, 12 months, arimoclomol group 30/34",88.2%
same,"Changes in vital signs, electrocardiograms, or other laboratory values",[5]; during the trial,no significant changes
same,Patients with TEAEs that led to trial drug discontinuation,"[5]; three patients, four TEAEs (urticaria x2, angioedema, increased blood creatinine)",8.8%
same,"SARA score change from baseline to 12 months, LS mean",[6]; arimoclomol group,1.06
same,"SARA score change from baseline to 12 months, Arimoclomol vs placebo: Difference",[6]; p=0.7899,0.28
same,Blood-brain barrier penetration,[7],crosses the blood—brain barrier
